The nature of series [1]: Stability under heat and moisture, 40°C/75% RH (residual content by HPLC). The format is physicochemical. As to the method: (§1) Contents of the free base of 3-[({1-[(2-amino-9H-purin-9-yl)methyl]cyclopropyl}oxy)methyl]-8,8-dimethyl-3,7-dioxo-2,4,6-trioxa-3λ5-phosphanon-1-yl-pivalate and salts thereof were measured by high performance liquid chromatography (HPLC). The specific measuring conditions are fisted below:
After 1, 4 and 8 weeks, 5 mg of each sample was taken, dissolved in a solvent mixture of tetrahydrofuran/water (1/1, v/v), and analyzed by HPLC.

Series [2] in a line: Stability at 60°C (residual content by HPLC). To be noted: for residual content: 60°C (about 4% RH). As to the method: as §1
After 1 or 2, 4 and 8 weeks, each sample in the glass vial was taken, dissolved in a solvent mixture of tetrahydrofuran/water (1/1, v/v), and analyzed by HPLC.

A short description of series [3]: Solubility test at various pH. To be noted: for solubility at 1.5 h: phosphate buffer / phosphoric acid solution, aqueous buffer, thermodynamic from solid. The format is physicochemical. How it is done: 5˜23 mg each of the maleic acid monosalt of the Example and the free base of Comparative Example 1 was placed into a glass bottle. 500 μl each of the various phosphate buffer solution and phosphoric acid solution having a specific pH value was added thereto. The glass bottle was placed in water to maintain a constant temperature of 25° C., and the mixture was stirred for 1.5 h. After filtration, the content in the filtrate was analyzed by HPLC, and the pH of the solution was measured. The measured pH values and the solubilities of the maleic acid monosalt and the free base are represented in the following Table 3.

A further series relates to hepatitis B virus. Kind of series: In vitro anti-HBV activity, HBV DNA by real-time PCR in HepG2.2.15 culture medium. Type of series: cell-based. How it is done: (§2) The hepatitis B virus-producing cell line, HepG2.2.15 (M. A. Shels, et al., Proc. Natl. Acad. Sci. USA 84, 1005 (1987)), was cultured in DMEM (Dulbecco's Modified Eagle Media; Life Technologies) containing 10% FBS (Fetal Bovine Serum), 1% ABAM (Antibiotic-Antimycotic) and Geneticin whose final concentration was measured as 400 μg/ml. The cells were cultured to confluency, treated with trypsin, and distributed to 96 well microplate in a density of 2×10^4 cells/well. After 24 h, the medium was changed and the compound treatment was carried out in intervals of 2 days by serially diluting the free base of Comparative Example 1 and the maleic acid monosalt of Example by three fold so that the final concentration was 50 μM to 8 nM in 200 μl of medium. Every test samples were duplicated. After 8 days from the first drug treatment, the culture medium was collected, and the cells were lysed by heating the cells to 100° C. for 10 min. In order to minimize the substances that interfere with the DNA amplification reaction, the culture medium was diluted by ten fold using water. The control group, cell culture medium which was not treated with the drug, was treated in the same manner as the above.

The subject of a further series is HepG2.2.15. Kind of series: Cytotoxicity determination (MTT). To be noted: for cytotoxicity: HepG2.2.15. As to the method: as §2
(§3) CC50 value of the drug was determined by removing the medium, adding 100 μl of 0.1 mg/ml MTT (Thiazolyl Blue Tetrazolium Bromide: Sigma) to the residue, dyeing the residue for 2 h at 37° C., adding 100 μl of DMSO (Dimethyl Sulfoxide: Sigma), dissolving the resulting mixture by agitating for 2 h at room temperature, and measuring the absorbance at 540 nm.

The nature of series [4]: Cytotoxicity determination (MTT). Particulars: human. How it is done: as §2, §3
Series [5] is described as follows: Hygroscopicity (no method described). Type of series: physicochemical.

Structures are written as SMILES. Converted amounts (≈) assume the structure as drawn. Read-outs that look alike come from different tables or passages of the source.

In the case of `CC(C)(C)C(=O)OCOP(=O)(COC1(Cn2cnc3cnc(N)nc32)CC1)OCOC(=O)C(C)(C)C` [Comparative Example 1, Free Base of 3-[({1-[(2-amino-9H-purin-9-yl)methyl]cyclopropyl}oxy)methyl]-8,8-dimethyl-3,7-dioxo-2,4,6-trioxa-3λ5-phosphanon-1-yl-pivalate], the residual content in series [1] (Week 1) is 99.0%; in series [1] (Week 4) it was 91.3%; in series [1] (Week 8), 8.4%; in series [2] (Week 1), 98.2%; in series [2] (Week 4), 79.2%; in series [2] (Week 8), 1.2%. Moreover, the residual content result in series [2] (Week 8, listed as free base) is listed as “about 1%”. Besides, the solubility was at most 1 mg/mL in series [3] (pH 6 or more); at least 36 mg/mL in series [3] (pH of 2 or less); 36.5 mg/mL (≈ 69.2 mM) in series [3] (solution pH 2.0, 25°C); 8.3 mg/mL (≈ 15.7 mM) in series [3] (solution pH 3.2, 25°C); 1.7 mg/mL (≈ 3.22 mM) in series [3] (solution pH 4.0, 25°C); 0.8 mg/mL (≈ 1.52 mM) in series [3] (solution pH 6.5, 25°C). Moreover, the EC50 with hepatitis B virus (HepG2.2.15, 8 days, HBV DNA in culture medium, read-out: EC50) was determined as 1.1 ± 0.1 µM. The “cytotoxicity” value in the series with HepG2.2.15 is on record as “about 7 m M”. In the series on HepG2.2.15 (HepG2.2.15, MTT), this molecule came in with a half-maximal cytotoxic concentration (CC50) of 7.9 ± 3 µM.
Regarding `CC(C)(C)C(=O)OCOP(=O)(COC1(Cn2cnc3cnc(N)nc32)CC1)OCOC(=O)C(C)(C)C.O=C(O)/C=C\C(=O)O.O=C(O)/C=C\C(=O)O.O=C(O)/C=C\C(=O)O` [Comparative Example 2, 3-[({1-[(2-amino-9H-purin-9-yl)methyl]cyclopropyl}oxy)methyl]-8,8-dimethyl-3,7-dioxo-2,4,6-trioxa-3λ5-phosphanon-1-yl-pivalate maleic acid trisalt], the residual content was 84.4% in series [1] (Week 1), 0.0% in series [1] (Week 4) and 0.0% in series [1] (Week 8).
Regarding `CC(C)(C)C(=O)OCOP(=O)(COC1(Cn2cnc3cnc(N)nc32)CC1)OCOC(=O)C(C)(C)C.Cc1ccc(S(=O)(=O)O)cc1` [Comparative Example 3, 3-[({1-[(2-amino-9H-purin-9-yl)methyl]cyclopropyl}oxy)methyl]-8,8-dimethyl-3,7-dioxo-2,4,6-trioxa-3λ5-phosphanon-1-yl-pivalate p-toluenesulfonic acid monosalt], the values for the residual content in series [1] (Week 1) and in series [1] (Week 4) were 96.5% and 71.0%, respectively.
With `CC(C)(C)C(=O)OCOP(=O)(COC1(Cn2cnc3cnc(N)nc32)CC1)OCOC(=O)C(C)(C)C.Cc1ccc(S(=O)(=O)O)cc1.Cc1ccc(S(=O)(=O)O)cc1` [Comparative Example 4, 3-[({1-[(2-amino-9H-purin-9-yl)methyl]cyclopropyl}oxy)methyl]-8,8-dimethyl-3,7-dioxo-2,4,6-trioxa-3λ5-phosphanon-1-yl-pivalate p-toluenesulfonic acid disalt], the residual content in series [1] (Week 1), in series [1] (Week 4) and in series [1] (Week 8) was 0.0% each time.
Regarding `CC(C)(C)C(=O)OCOP(=O)(COC1(Cn2cnc3cnc(N)nc32)CC1)OCOC(=O)C(C)(C)C.CS(=O)(=O)O` [Comparative Example 5, 3-[({1-[(2-amino-9H-purin-9-yl)methyl]cyclopropyl}oxy)methyl]-8,8-dimethyl-3,7-dioxo-2,4,6-trioxa-3λ5-phosphanon-1-yl-pivalate methanesulfonic acid monosalt], the figures for the residual content in series [1] (Week 1), in series [1] (Week 4) and in series [1] (Week 8) were 50.7%, 0.0% and 0.0%, respectively.
In series [2] (Week 2), `CC(C)(C)C(=O)OCOP(=O)(COC1(Cn2cnc3cnc(N)nc32)CC1)OCOC(=O)C(C)(C)C.O=S(=O)(O)c1ccc2ccccc2c1` [Comparative Example 6, 3-[({1-[(2-amino-9H-purin-9-yl)methyl]cyclopropyl}oxy)methyl]-8,8-dimethyl-3,7-dioxo-2,4,6-trioxa-3λ5-phosphanon-1-yl-pivalate naphthalenesulfonic acid monosalt] had a residual content of 74.7%.
In turn, `CC(C)(C)C(=O)OCOP(=O)(COC1(Cn2cnc3cnc(N)nc32)CC1)OCOC(=O)C(C)(C)C.CCS(=O)(=O)O` [Comparative Example 7, 3-[({1-[(2-amino-9H-purin-9-yl)methyl]cyclopropyl}oxy)methyl]-8,8-dimethyl-3,7-dioxo-2,4,6-trioxa-3λ5-phosphanon-1-yl-pivalate ethanesulfonic acid monosalt] gave a residual content in series [2] (Week 1) of 0.4%.
As for `CC(C)(C)C(=O)OCOP(=O)(COC1(Cn2cnc3cnc(N)nc32)CC1)OCOC(=O)C(C)(C)C.O=C(O)/C=C\C(=O)O` [Example, 3-[({1-[(2-amino-9H-purin-9-yl)methyl]cyclopropyl}oxy)methyl]-8,8-dimethyl-3,7-dioxo-2,4,6-trioxa-3λ5-phosphanon-1-yl-pivalate maleic acid monosalt], the residual content in series [1] (Week 1) was 99.4%; in series [1] (Week 4), 99.3%; in series [1] (Week 8) it was 98.3%; in series [2] (Week 1), 99.4%; in series [2] (Week 4) it was 99.2%; in series [2] (Week 8), 98.2%. The “thermal stability (decomposition, in words)” value in series [2] (60°C, stressed condition) is “remained almost intact without decomposition for up to 8 weeks”. The “solubility relative to the free base” value in series [3] (pH 6.5) is given as “three times higher”. Besides, the solubility at 1.5 h in series [3] (25 °C, pH range of 2 to 6.5) was 3 to 7 mg/mL; in series [3] (solution pH 2.0, 25°C) it was 5.6 mg/mL; in series [3] (solution pH 3.2, 25°C), 7 mg/mL; in series [3] (solution pH 4.0, 25°C), 4.2 mg/mL; in series [3] (solution pH 6.5, 25°C), 2.9 mg/mL. The EC50 was 1.2 ± 0.3 µM with hepatitis B virus (Hepatitis B virus, HepG2.2.15, 192 h) and around 1 µM with hepatitis B virus (Hepatitis B virus, HepG2.2.15, read-out: activity (in vitro, summary in text)). This molecule also showed a CC50 at 8 days in series [4] of 6.8 ± 2.4 µM. Further, in the series with HepG2.2.15, the “cytotoxicity” value is “about 7 m M”. The hygroscopicity entry in series [5] is “non-hygroscopic”.

(Values after patent publication US20090325904A1, “MALEIC ACID MONOSALT OF ANTIVIRAL AGENT AND PHARMACEUTICAL COMPOSITION CONTAINING THE SAME” (LG Life Sciences Ltd., priority 2007, published 2009).)
